The target in the test is T1, human A2B receptor (Homo sapiens, UniProt P29275).
T1 construct: host or cells: HEK293 cells stably expressing the receptor; membranes prepared from them
T1 sequence (P29275 1-332): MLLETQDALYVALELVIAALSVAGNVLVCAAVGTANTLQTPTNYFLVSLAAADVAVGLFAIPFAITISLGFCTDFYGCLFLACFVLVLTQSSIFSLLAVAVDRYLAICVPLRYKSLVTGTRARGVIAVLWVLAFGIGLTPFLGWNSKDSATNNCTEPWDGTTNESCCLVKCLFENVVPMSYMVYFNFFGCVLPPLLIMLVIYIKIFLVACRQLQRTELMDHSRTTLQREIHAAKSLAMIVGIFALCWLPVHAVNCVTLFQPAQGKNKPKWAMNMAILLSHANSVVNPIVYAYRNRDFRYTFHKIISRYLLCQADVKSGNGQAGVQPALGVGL
Briefly: Adenosine 2B receptor subtype competition radioligand binding assay. Conditions: [3H]-DPCPX competition, membranes from HEK293 cells expressing human A2B receptor. Here is the method:
A2B membranes were prepared from HEK293 cells stably expressing the human A2B receptor that were purchased from Euroscreen (ES-013-C). […] At the end of the incubation, samples were transferred to a GF/C filter plates (Milipore MAFCN0B50) pretreated for 15 min. with 250 μl of Tris-HCl 50 mM pH 6.5 (Buffer B). Samples were then filtered 4 times with 250 μl of buffer B. Samples were counted using 30 μl of Hisafe II (Perkin Elmer) in a Trilux counter.

This is an account of results in patent US20100273757A1, “PYRAZINE DERIVATIVES USEFUL AS ADENOSINE RECEPTOR ANTAGONISTS” (Laboratorios Almirall, S.A., priority 2005, published 2010).

`COc1ccc(-c2nc(NC(=O)C3CC3)cnc2-c2ccncc2F)cn1` [Example 119, N-[5-(3-Fluoropyridin-4-yl)-6-(6-methoxypyridin-3-yl)pyrazin-2-yl]cyclopropane carboxamide] displayed an inhibitory constant (Ki) of 3 nM. The same measure for `Nc1cnc(-c2ccncc2F)c(-c2cccc(F)c2)n1` [Example 3, 6-(3-Fluorophenyl)-5-(3-fluoropyridin-4-yl)pyrazin-2-amine]: 4 nM; for `O=C(Nc1cnc(-c2ccncc2Cl)c(-c2ccccn2)n1)C1CC1` [Example 22, N-[5-(3-Chloropyridin-4-yl)-6-pyridin-2-ylpyrazin-2-yl]cyclopropanecarboxamide]: 16 nM.

With `COc1nc(-c2ccncc2)c(-c2ccco2)nc1N` [Example 67, 6-(2-Furyl)-3-methoxy-5-pyridin-4-ylpyrazin-2-amine], the Ki was determined as 9 nM.

`O=c1[nH]c2nc(-c3ccncc3)c(-c3cccc(F)c3)nc2[nH]1` [Example 76, 5-(3-Fluorophenyl)-6-pyridin-4-yl-1,3-dihydro-2H-imidazo[4,5-b]pyrazin-2-one] had a Ki of 4 nM. Take `Fc1cnccc1-c1nc2cc(-c3cccnc3)[nH]c2nc1-c1cccnc1` [Example 149, 2-(3-Fluoropyridin-4-yl)-3,6-dipyridin-3-yl-5H-pyrrolo[2,3-b]pyrazine]: the inhibition constant Ki worked out at 0.9 nM.

One may read the Ki as a dissociation constant, usually derived from enzyme kinetics or from competition with a known ligand. A high value points to a looser hold on the target.
